Assay results from PMC9950949 (iScience, 2023).

Biological target: NLRP3 (Homo sapiens, UniProt Q96P20)
Test: microscale thermophoresis
Format: binding

Sequence of NLRP3 (Q96P20 whole entry): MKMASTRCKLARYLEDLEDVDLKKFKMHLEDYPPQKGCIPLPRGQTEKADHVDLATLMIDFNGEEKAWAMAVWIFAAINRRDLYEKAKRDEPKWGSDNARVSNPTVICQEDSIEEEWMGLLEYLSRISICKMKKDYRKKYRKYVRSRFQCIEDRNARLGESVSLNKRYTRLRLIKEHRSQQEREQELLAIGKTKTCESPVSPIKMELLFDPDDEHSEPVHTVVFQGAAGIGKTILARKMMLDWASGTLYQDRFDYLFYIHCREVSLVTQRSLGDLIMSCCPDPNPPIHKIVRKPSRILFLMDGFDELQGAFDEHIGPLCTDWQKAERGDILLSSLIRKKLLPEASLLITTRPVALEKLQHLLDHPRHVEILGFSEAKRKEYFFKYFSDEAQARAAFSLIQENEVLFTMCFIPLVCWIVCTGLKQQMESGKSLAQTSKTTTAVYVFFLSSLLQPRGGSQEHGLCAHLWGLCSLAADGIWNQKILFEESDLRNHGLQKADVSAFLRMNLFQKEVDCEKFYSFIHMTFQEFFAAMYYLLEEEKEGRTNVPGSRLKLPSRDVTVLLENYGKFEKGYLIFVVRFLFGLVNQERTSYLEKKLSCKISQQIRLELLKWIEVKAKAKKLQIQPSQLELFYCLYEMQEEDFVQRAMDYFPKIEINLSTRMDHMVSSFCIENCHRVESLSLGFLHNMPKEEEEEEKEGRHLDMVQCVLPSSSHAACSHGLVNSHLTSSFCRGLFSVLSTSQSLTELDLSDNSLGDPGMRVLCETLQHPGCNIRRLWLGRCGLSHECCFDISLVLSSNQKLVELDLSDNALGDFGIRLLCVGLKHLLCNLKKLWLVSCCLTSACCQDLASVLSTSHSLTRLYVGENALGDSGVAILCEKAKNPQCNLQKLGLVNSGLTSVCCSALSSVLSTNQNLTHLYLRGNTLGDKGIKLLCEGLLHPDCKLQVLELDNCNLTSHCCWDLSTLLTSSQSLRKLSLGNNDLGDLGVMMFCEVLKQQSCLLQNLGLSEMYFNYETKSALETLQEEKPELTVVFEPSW

Question: For `O=C1NC(=O)[C@@H](c2cn3c4c(cccc24)CCC3)[C@@H]1c1c[nH]c2ccccc12` [Tivantinib], which Kd is on record?
Answer: ~373 nM
